Results from BindingDB's records for patent US10246444 (Sabila Biosciences, 2019).

Molecular target: Epidermal growth factor receptor [T790M,L858R] (Homo sapiens, UniProt P00533, L858R/T790M)
Assay: Kinase assay
Method: The assay is performed by combining three components: DNA-tagged kinase; immobilized ligand; and a test compound. The ability of the test compound to compete with the immobilized ligand is measured via quantitative PCR of the DNA tag.For most assays, kinase-tagged T7 phage strains were prepared in an E. coli host derived from the BL21 strain. E. coli were grown to log-phase and infected with T7 phage and incubated with shaking at 32° C. until lysis. The lysates were centrifuged and filtered to remove cell debris. The remaining kinases were produced in HEK-293 cells and subsequently tagged with DNA for qPCR detection. […] The liganded beads were blocked with excess biotin and washed with blocking buffer (SeaBlock (Pierce), 1% BSA, 0.05% Tween 20, 1 mM DTT) to remove unbound ligand and to reduce nonspecific binding. […] All reactions were performed in polystyrene 96-well plates in a final volume of 0.135 ml. […] The kinase concentration in the eluates was measured by qPCR.

Epidermal growth factor receptor [T790M,L858R], sequence (P00533 25-1210 T790M/L858R limits assumed): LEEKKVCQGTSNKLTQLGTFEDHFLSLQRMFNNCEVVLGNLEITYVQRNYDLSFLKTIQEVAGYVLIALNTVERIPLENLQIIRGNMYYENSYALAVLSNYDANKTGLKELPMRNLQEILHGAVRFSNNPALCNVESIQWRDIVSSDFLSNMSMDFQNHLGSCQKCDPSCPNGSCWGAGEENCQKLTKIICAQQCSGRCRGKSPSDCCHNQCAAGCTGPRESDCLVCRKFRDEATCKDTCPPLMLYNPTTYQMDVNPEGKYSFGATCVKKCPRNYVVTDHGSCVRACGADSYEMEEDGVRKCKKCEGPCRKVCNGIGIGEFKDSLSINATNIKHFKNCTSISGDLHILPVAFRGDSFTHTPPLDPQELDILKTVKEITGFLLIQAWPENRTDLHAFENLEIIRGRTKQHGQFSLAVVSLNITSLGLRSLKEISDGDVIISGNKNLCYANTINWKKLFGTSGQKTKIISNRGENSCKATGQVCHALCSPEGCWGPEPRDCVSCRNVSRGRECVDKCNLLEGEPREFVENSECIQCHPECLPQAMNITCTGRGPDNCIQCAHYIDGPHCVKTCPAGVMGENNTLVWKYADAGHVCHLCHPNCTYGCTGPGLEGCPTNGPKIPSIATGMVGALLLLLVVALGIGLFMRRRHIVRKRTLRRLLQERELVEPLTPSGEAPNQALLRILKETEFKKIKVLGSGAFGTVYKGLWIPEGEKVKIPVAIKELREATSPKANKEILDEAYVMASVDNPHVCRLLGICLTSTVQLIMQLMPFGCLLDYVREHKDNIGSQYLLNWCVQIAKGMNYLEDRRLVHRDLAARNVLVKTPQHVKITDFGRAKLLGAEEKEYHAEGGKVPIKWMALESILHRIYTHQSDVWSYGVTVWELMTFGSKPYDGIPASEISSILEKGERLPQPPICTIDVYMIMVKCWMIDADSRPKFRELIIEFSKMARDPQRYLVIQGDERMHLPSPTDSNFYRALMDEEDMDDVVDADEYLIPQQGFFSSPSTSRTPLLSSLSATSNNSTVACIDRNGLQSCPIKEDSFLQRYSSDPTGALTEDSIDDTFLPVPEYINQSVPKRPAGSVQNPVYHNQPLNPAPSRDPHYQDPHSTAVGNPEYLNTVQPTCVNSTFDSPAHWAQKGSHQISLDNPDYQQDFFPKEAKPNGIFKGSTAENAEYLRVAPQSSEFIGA

CCOc1cc2ncc(C#N)c(Nc3ccc(OCc4cccc(F)c4)c(Cl)c3)c2cc1NC(=O)CC1CCSS1 (stereo unspecified) [US10246444, Example 40]
Kd: > 10 µM
